In publication PMC10657467, “Mechanically-primed voltage-gated proton channels from angiosperm plants” (Nature Communications, 2023):

Legend:
Assay type in all cases: cell-based
[1] = molecular target: T1, AtHv1 (Arabidopsis thaliana, UniProt Q9SGX2); assay: inside-out patch-clamp of proton currents
T1 construct: gene At1g10800; full-length channel (NP_001321473.1, 236 a.a.) expressed in Xenopus oocytes, after mechanical stimulus
T1 sequence (Q9SGX2 1-236): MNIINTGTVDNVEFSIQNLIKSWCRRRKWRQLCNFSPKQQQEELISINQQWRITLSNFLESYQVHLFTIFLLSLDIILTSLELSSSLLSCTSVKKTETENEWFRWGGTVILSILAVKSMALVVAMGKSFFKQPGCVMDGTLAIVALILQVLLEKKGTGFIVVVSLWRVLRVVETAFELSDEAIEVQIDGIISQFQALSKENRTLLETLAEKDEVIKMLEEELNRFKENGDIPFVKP

[2] = molecular target: T2, PsHv1 (Picea sitchensis, UniProt B8LLA1); assay: inside-out patch-clamp of proton currents, Hill fit
T2 construct: full-length channel (ABR16431.1, 260 a.a.) expressed in Xenopus oocytes
T2 sequence (B8LLA1 1-260): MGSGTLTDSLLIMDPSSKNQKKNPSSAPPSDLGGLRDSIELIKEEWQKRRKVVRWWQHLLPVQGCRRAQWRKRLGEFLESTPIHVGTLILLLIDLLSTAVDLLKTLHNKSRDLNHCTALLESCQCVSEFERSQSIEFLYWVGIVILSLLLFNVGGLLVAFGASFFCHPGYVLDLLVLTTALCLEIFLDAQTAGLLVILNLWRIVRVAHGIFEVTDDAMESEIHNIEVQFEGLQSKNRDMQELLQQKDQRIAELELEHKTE

[3] = molecular target: T3, SmHv1 (Selaginella moellendorffii, UniProt D8SZW5); assay: inside-out patch-clamp of proton currents
T3 construct: gene SELMODRAFT_128853; full-length channel (EFJ10096.1, 242 a.a.) expressed in Xenopus oocytes, after mechanical stimulus
T3 sequence (D8SZW5 1-242): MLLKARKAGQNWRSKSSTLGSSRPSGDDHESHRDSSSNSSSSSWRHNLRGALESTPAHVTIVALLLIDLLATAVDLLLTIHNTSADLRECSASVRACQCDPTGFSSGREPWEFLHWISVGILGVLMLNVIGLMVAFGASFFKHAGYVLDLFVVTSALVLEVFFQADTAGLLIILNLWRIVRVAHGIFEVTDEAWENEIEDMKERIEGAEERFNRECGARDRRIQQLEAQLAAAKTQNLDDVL

Compound | inside-out patch-clamp of proton currents [1] | IC50 [2] | inside-out patch-clamp of proton currents [3]
N=C(N)Nc1nc2ccccc2[nH]1 [2GBI, 2-guanidinobenzimidazole] | Despite some small differences in the extent of inhibition by 2GBI, AtHv1, SmHv1, and PsHv1 shared a low sensitivity | 372 ± 28 µM | Despite some small differences in the extent of inhibition by 2GBI, AtHv1, SmHv1, and PsHv1 shared a low sensitivity
N=C(N)Nc1nc2ccc(Cl)cc2[nH]1 [ClGBI, 5-chloro-2-guanidinobenzimidazole] | we tested the effects of 2GBI and ClGBI on AtHv1- and SmHv1-mediated currents post-mechanical stimulation | 39 ± 8 µM | we tested the effects of 2GBI and ClGBI on AtHv1- and SmHv1-mediated currents post-mechanical stimulation
